{"source": "patent US20190316085A1", "about": "“Methods Of T-Lymphocyte Expansion” (Cambridge Enterprise Limited, priority 2015, published 2019)", "key": {"CD8^+ T-lymphocytes": {"system": "CD8^+ T-lymphocytes", "assay": "Glucose, lactate and VEGF measurements in media", "format": "cell-based, mouse", "conditions": "0.5 mM, 16 hours", "method": "Each dot represent one donor mouse n≥16 mice. P-values are shown for each panel; one-way ANOVA for multiple comparisons (A, B and C). n.s.=non significant.\nCD8^+ T-cells were expanded for 4 days and then treated for 16 h with S-2HG octyl ester or R-2HG octyl ester. Glucose and lactate levels in culture medium were measured with a Dade-Behring Dimension RXL analyser. Changes in metabolite concentrations relative to fresh media were normalized to viable cell counts. VEGF, IL-2 and IFN-γ protein levels in media were determined using the following kits from MesoScale Discovery: K150BMC-2 for VEGF, K15048D-2 for IFN-γ and K152QQD-2 for IL-2. Values were normalized to viable cell counts."}, "EG7-OVA cells": {"system": "EG7-OVA cells", "assay": "In vitro cytotoxicity assay (specific killing by OT-I CD8+ T-lymphocytes)", "format": "cell-based, mouse", "conditions": "0.5 mM for 24 h, 4 hours with target and control cells", "method": "Total splenocytes were activated for 48 h with 1000 nM SIINFEKL and then expanded for a further 4 days in the presence of IL-2 followed by treatment 0.5 mM of S-2HG-octyl R-2HG-octyl ester ester for 24 h. OT-I CD8^+ T-lymphocytes were incubated with target and control cells for 4 hours. n=3 mice per condition. […] Cells were activated for 48 h with αCD3+αCD28 antibodies and then expanded for a further 4 days in the presence of IL-2 followed by treatment with the indicated concentration of S-2HG-octyl ester or R-2HG-octyl ester for 24 hours. n≥16 mice.\nTotal splenocytes from OT-I mice were activated with SIINFEKL-peptide for 48 h and expanded for a further 4 days in IL-2 containing medium. OT-I-specific CD8^+ T-cells were then treated for 24 h with or without 0.5 mM S-2HG-octyl ester or R-2HG-octyl ester and then incubated with target (EG7-OVA, CFSE-low) and control (EL4, CFSE high) cells. Specific lysis was calculated by normalization of the loss in signal of the CFSE-low population relative to the CFSE-high population after co-culture of 4 hours with the vehicle or S-2HG-octyl ester or R-2HG-octyl ester-treated OT-I-specific CD8^+ T-cells."}}}
{"compound": "CCCCCCCCOC(=O)[C@H](O)CCC(=O)O", "note": "[R-2HG-octyl ester]", "values": [{"measurement": "VEGF production", "setting": "CD8^+ T-lymphocytes", "result": "elevated"}, {"measurement": "glucose uptake", "setting": "CD8^+ T-lymphocytes", "result": "elevated"}, {"measurement": "lactate secretion", "setting": "CD8^+ T-lymphocytes", "result": "elevated"}, {"measurement": "lytic ability of antigen specific OT-I CD8+ T-cells", "setting": "EG7-OVA cells", "result": "markedly lower"}]}
{"compound": "CCCCCCCCOC(=O)[C@@H](O)CCC(=O)O", "note": "[S-2HG-octyl ester, S-2HG octyl ester]", "values": [{"measurement": "VEGF production", "setting": "CD8^+ T-lymphocytes", "result": "elevated"}, {"measurement": "glucose uptake", "setting": "CD8^+ T-lymphocytes", "result": "elevated"}, {"measurement": "lactate secretion", "setting": "CD8^+ T-lymphocytes", "result": "elevated"}, {"measurement": "lytic ability of antigen specific OT-I CD8+ T-cells", "setting": "EG7-OVA cells", "result": "markedly lower"}]}
